Legend:
[1] = compound: Cc1c2c(nn1C)CSCc1cc(n(C)n1)CSc1cc(c3ccccc3c1)OCCCc1c(C(=O)O)n(C)c3c-2c(Cl)ccc13 [AZD5991]; conditions: max 1 µM
Outline: (§1)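 Plates with 1536 wells received cancer cell lines in 7.5 μl of DMEM/F12 or RPMI containing 10% FBS. After 24 hours at 37°C and 5% CO2, cells were dosed for 72 hours with final DMSO typically 0.2%, and viability was read by CellTiter-Glo 2.0 luminescence scaled between blank-well and DMSO-well means. The single-agent IC50 was taken from a logistic fit of the dose responses made with a non-linear mixed effects model, that logistic curve having two parameters.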

[2] = compound: CC(C)n1c(=O)n(C)c2cnc3cc(F)c(-c4ccc(OCCCN5CCCCC5)nc4)cc3c21 [AZD1390]; conditions: max 0.3 µM
Outline: as §1

[3] = compound: Nc1ccn([C@@H]2O[C@H](CO)[C@@H](O)C2(F)F)c(=O)n1 [Gemcitabine]; conditions: max 0.3 µM
Outline: as §1

[4] = compound: C1CN(CCC1(C(=O)N[C@@H](CCO)C2=CC=C(C=C2)Cl)N)C3=NC=NC4=C3C=CN4 [AZD5363]; conditions: max 10 µM
Outline: as §1

[5] = compound: CCc1c2c(nc3ccc(O)cc13)-c1cc3c(c(=O)n1C2)COC(=O)[C@]3(O)CC [SN-38]; conditions: max 0.3 µM
Outline: as §1

[6] = compound: C[C@@H](Nc1cc(F)cc(F)c1)c1cc(C(=O)N(C)C)cc2c(=O)cc(N3CCOCC3)oc12 [AZD8186]; conditions: max 10 µM
Outline: as §1

[7] = compound: O=c1[nH]cc(F)c(=O)[nH]1 [5-Fluorouracil]; conditions: max 20 µM
Outline: as §1

[8] = compound: COc1cc(Nc2ncc3c(n2)-c2ccc(Cl)cc2C(c2c(F)cccc2OC)=NC3)ccc1C(=O)O [Alisertib]; conditions: max 10 µM
Outline: as §1

[9] = compound: C=CCn1c(=O)c2cnc(Nc3ccc(N4CCN(C)CC4)cc3)nc2n1-c1cccc(C(C)(C)O)n1 [AZD1775]; conditions: max 3 µM
Outline: as §1

[10] = compound: O=C(c1cc(Cc2n[nH]c(=O)c3ccccc23)ccc1F)N1CCN(C(=O)C2CC2)CC1 [Olaparib]; conditions: max 10 µM
Outline: as §1

[11] = compound: NC1(c2ccc(-c3nc4ccn5c(=O)[nH]nc5c4cc3-c3ccccc3)cc2)CCC1 [MK-2206]; conditions: max 10 µM
Outline: as §1

[12] = compound: CC1=CN2[C@@H](C1)C=NC3=CC(=C(C=C3C2=O)OC)OCCCCCOC4=C(C=C5C(=C4)N=C[C@@H]6CC(=CN6C5=O)C)OC [SG3199]; conditions: max 0.001 µM
Outline: as §1

[13] = compound: O=C(Nc1ccc2[nH]nc(-c3ccncc3)c2c1)[C@@H]1CCN(CC(=O)N2CCN(c3ccc(-c4ncccn4)cc3)CC2)C1; conditions: max 5 µM
Outline: as §1

[14] = compound: CC(=O)c1c(C)c2cnc(Nc3ccc(N4CCNCC4)cn3)nc2n(C2CCCC2)c1=O [Palbociclib]; conditions: max 10 µM
Outline: as §1

[15] = compound: CN(C)CCCOc1ccc(-c2ccc3ncc4c(c3c2)n(C2CCOCC2)c(=O)n4C)cn1 [AZD0156]; conditions: max 3 µM
Outline: as §1

[16] = compound: COc1cc2ncnc(Nc3ccc(F)c(Cl)c3)c2cc1OCCCN1CCOCC1 [Gefitinib]; conditions: max 10 µM
Outline: as §1

[17] = compound: COc1cc([C@@H]2c3cc4c(cc3[C@@H](O[C@@H]3O[C@@H]5CO[C@@H](C)O[C@H]5[C@H](O)[C@H]3O)[C@H]3COC(=O)[C@H]23)OCO4)cc(OC)c1O [Etoposide]; conditions: max 10 µM
Outline: as §1

[18] = compound: CC(=O)O[C@H]1C(=O)[C@@]2(C)[C@H]([C@H](OC(=O)c3ccccc3)[C@]3(O)C[C@H](OC(=O)[C@H](O)[C@@H](NC(=O)c4ccccc4)c4ccccc4)C(C)=C1C3(C)C)[C@]1(OC(C)=O)CO[C@@H]1C[C@@H]2O [Paclitaxel]; conditions: max 3 µM
Outline: as §1

[19] = compound: CCN(CCO)CCCOc1ccc2c(Nc3cc(CC(=O)Nc4cccc(F)c4)[nH]n3)ncnc2c1 [AZD2811]; conditions: max 1 µM
Outline: as §1

[20] = compound: CC(=O)Nc1cccc(-n2c(=O)n(C3CC3)c(=O)c3c(Nc4ccc(I)cc4F)n(C)c(=O)c(C)c32)c1 [Trametinib]; conditions: max 1 µM
Outline: as §1

[21] = compound: C[C@@H](c1ccc2nccn2c1)n1nnc2ncc(-c3cnn(C)c3)nc21 [Savolitinib]; conditions: max 1 µM
Outline: as §1

[22] = compound: COc1nnc2ccc(N3CCC(c4ccc(OCCN5CCN(C)C(=O)[C@H]5C)cc4)CC3)nn12 [AZD5153]; conditions: max 1 µM
Outline: as §1

[23] = compound: COc1cccc2c1C(=O)c1c(O)c3c(c(O)c1C2=O)C[C@@](O)(C(=O)CO)C[C@@H]3O[C@H]1C[C@H](N)[C@H](O)[C@H](C)O1 [Doxorubicin]; conditions: max 1 µM
Outline: as §1

[24] = compound: CN(CC[C@H](CSC1=CC=CC=C1)NC2=C(C=C(C=C2)S(=O)(=O)NC(=O)C3=CC=C(C=C3)N4CCC(CC4)[C@H](C5=CC=CC=C5C6=CC=C(C=C6)Cl)O)S(=O)(=O)C(F)(F)F)CCO [AZD4320]; conditions: max 1 µM
Outline: as §1

[25] = compound: C1CC(C1)(C(=O)[O-])C(=O)[O-].N.N.[Pt+2] [Carboplatin]; conditions: max 10 µM
Outline: as §1

[26] = compound: C[C@@H]1COCCN1C2=NC(=NC(=C2)C3(CC3)[S@](=N)(=O)C)C4=C5C=CNC5=NC=C4 [AZD6738]; conditions: max 10 µM
Outline: as §1

[27] = compound: CS(=O)(=O)CCNCc1ccc(-c2ccc3ncnc(Nc4ccc(OCc5cccc(F)c5)c(Cl)c4)c3c2)o1 [Lapatinib]; conditions: max 10 µM
Outline: as §1

[28] = compound: C[C@@H](Oc1cc(-c2cnn(C3CCNCC3)c2)cnc1N)c1c(Cl)ccc(F)c1Cl [Crizotinib]; conditions: max 10 µM
Outline: as §1

[29] = compound: CC1(C)CCC(CN2CCN(c3ccc(C(=O)NS(=O)(=O)c4ccc(NCC5CCOCC5)c([N+](=O)[O-])c4)c(Oc4cnc5[nH]ccc5c4)c3)CC2)=C(c2ccc(Cl)cc2)C1 [Venetoclax]; conditions: max 1 µM
Outline: as §1

[30] = compound: Cc1nc(-c2cn3c(n2)-c2ccc(-c4cnn(C(C)(C)C(N)=O)c4)cc2OCC3)n(C(C)C)n1 [Taselisib]; conditions: max 10 µM
Outline: as §1

[31] = compound: N#Cc1cnc(Nc2cc(NC[C@H]3CNCCO3)c(C(F)(F)F)cn2)cn1 [SRA737]; conditions: max 10 µM
Outline: as §1

[32] = compound: COc1cccc(OCCCN)c1-c1cc(Nc2cnc(C#N)cn2)n[nH]1 [Prexasertib]; conditions: max 1 µM
Outline: as §1

[33] = compound: Cn1cnc2c(F)c(Nc3ccc(Br)cc3Cl)c(C(=O)NOCCO)cc21 [Selumetinib]; conditions: max 10 µM
Outline: as §1

[34] = compound: Cc1cc2ncnn2cc1Nc1ncc2c(n1)n(C1CCOCC1)c(=O)n2C [AZD7648]; conditions: max 10 µM
Outline: as §1

[35] = compound: CC1=C(C(=CC=C1)Cl)NC(=O)C2=CN=C(S2)NC3=CC(=NC(=N3)C)N4CCN(CC4)CCO [Dasatinib]; conditions: max 2 µM
Outline: as §1

Row | Cell Line | IC50, cell viability 72 h [1] | IC50, cell viability 72 h [2] | IC50, cell viability 72 h [3] | IC50, cell viability 72 h [4] | IC50, cell viability 72 h [5] | IC50, cell viability 72 h [6] | IC50, cell viability 72 h [7] | IC50, cell viability 72 h [8] | IC50, cell viability 72 h [9] | IC50, cell viability 72 h [10] | IC50, cell viability 72 h [11] | IC50, cell viability 72 h [12] | IC50, cell viability 72 h [13] | IC50, cell viability 72 h [14] | IC50, cell viability 72 h [15] | IC50, cell viability 72 h [16] | IC50, cell viability 72 h [17] | IC50, cell viability 72 h [18] | IC50, cell viability 72 h [19] | IC50, cell viability 72 h [20] | IC50, cell viability 72 h [21] | IC50, cell viability 72 h [22] | IC50, cell viability 72 h [23] | IC50, cell viability 72 h [24] | IC50, cell viability 72 h [25] | IC50, cell viability 72 h [26] | IC50, cell viability 72 h [27] | IC50, cell viability 72 h [28] | IC50, cell viability 72 h [29] | IC50, cell viability 72 h [30] | IC50, cell viability 72 h [31] | IC50, cell viability 72 h [32] | IC50, cell viability 72 h [33] | IC50, cell viability 72 h [34] | IC50, cell viability 72 h [35]
1 | HSC-39 (Gastric Carcinoma) | 55.6 nM | > 300 nM | 11.7 nM | > 10 µM | 7.39 nM | > 10000 nM | 16.6 µM | < 0.01 µM | 398 nM | > 10 µM | > 10 µM | > 1 nM | 2.88 µM | 4.37 µM | > 3000 nM | > 10 µM | 1230 nM | 4.55 nM | 150 nM | 423 nM | > 1000 nM | 322 nM | 160 nM | > 1000 nM | > 10 µM | 538 nM | 5.62 µM | 2.06 µM | 561 nM | 791 nM | 519 nM | 4.86 nM | > 10 µM | > 10 µM | > 2000 nM
2 | VAL (B-Cell Non-Hodgkin's Lymphoma) | 446 nM | > 300 nM | 8.94 nM | 5.13 µM | 1.77 nM | 2450 nM | > 20 µM | 0.0606 µM | 416 nM | 8.57 µM | 1.87 µM | > 1 nM | > 5 µM | 2.66 µM | > 3000 nM | > 10 µM | 261 nM | 57.3 nM | 141 nM | > 1000 nM | > 1000 nM | 61.8 nM | 28 nM | 36.5 nM | > 10 µM | 1030 nM | > 10 µM | 4.62 µM | 31.5 nM | 2280 nM | 1470 nM | 6.12 nM | > 10 µM | 8.52 µM | 91.9 nM
3 | OVMIU (Ovarian Carcinoma) | > 1000 nM | > 300 nM | > 300 nM | > 10 µM | > 300 nM | > 10000 nM | > 20 µM | 7.01 µM | 1720 nM | > 10 µM | > 10 µM | > 1 nM | 3.19 µM | > 10 µM | > 3000 nM | 3.2 µM | > 10000 nM | 77.7 nM | > 1000 nM | 70 nM | > 1000 nM | 302 nM | 801 nM | > 1000 nM | > 10 µM | > 10000 nM | 3.24 µM | > 10 µM | > 1000 nM | 148 nM | > 10000 nM | 267 nM | > 10 µM | > 10 µM | 209 nM
4 | L-1236 (Hodgkin's Lymphoma) | > 1000 nM | > 300 nM | 17.7 nM | 2.81 µM | 62.4 nM | 2080 nM | > 20 µM | > 10 µM | 85.4 nM | > 10 µM | 8.4 µM | > 1 nM | > 5 µM | 6.34 µM | > 3000 nM | > 10 µM | 3350 nM | 36.2 nM | > 1000 nM | > 1000 nM | > 1000 nM | 13.2 nM | > 1000 nM | 89.5 nM | > 10 µM | 3960 nM | > 10 µM | 1.94 µM | 861 nM | 9380 nM | 969 nM | 32.7 nM | > 10 µM | > 10 µM | > 2000 nM
5 | RCM-1 (Colorectal Carcinoma) | > 1000 nM | > 300 nM | > 300 nM | > 10 µM | 35.4 nM | > 10000 nM | > 20 µM | > 10 µM | 1790 nM | > 10 µM | > 10 µM | > 1 nM | 2.15 µM | > 10 µM | > 3000 nM | > 10 µM | > 10000 nM | > 3000 nM | > 1000 nM | 31.8 nM | > 1000 nM | 506 nM | > 1000 nM | > 1000 nM | > 10 µM | 2610 nM | > 10 µM | > 10 µM | > 1000 nM | 9940 nM | > 10000 nM | 23.2 nM | 2.57 µM | > 10 µM | > 2000 nM

— the supplement of paper PMC11061612
